Experimental data reported in patent publication US8268797B2, “Combination therapy for the treatment of cancer” (Isis Pharmaceuticals, Inc., priority 2008, dated 2012).

How the values were obtained:
[1] = test system: A549 xenografts; experiment: A549 human non-small cell lung cancer xenograft tumor volume in athymic nude mice; type: in vivo; conditions: for A549 Xenograft Tumor Volume, Mean / Percent Reduction of A549 Tumor Size on Day 75: ASO 50 mg/kg iv, cisplatin 5 mg/kg IP weekly; for A549 Xenograft Tumor Volume, Mean: nude mice; for Percent Reduction of A549 Tumor Size on Day 75: negative number indicates reduction vs. control
Experimental: (§1) Xenograft studies are carried out as described in Graff et al. (2005) Cancer Res. 65:7462-7469. Five million human cancer cells representing non-small cell lung cancer (line A549; ATCC, accession no. CCL-185; line NCI-H1975; ATCC, accession no. CRL-5908) are injected subcutaneously in the flank of 6-8 week old, athymic nude mice (Harlan, Indianapolis, Ind.) in a 1:1 mixture of serum-free growth medium and matrigel (Becton Dickinson, Bedford, Mass., catalogue #354234). Mice are monitored daily for palpable tumors.
(§2) When tumor volumes reach ˜50-100 mm^3, mice are randomized to treatment groups (Graff et al. (2007) J. Clin. Invest. 117:2638-48). Body weight is monitored each time tumors are measured.
(§3) For treatment, all mice are injected intravenously with the eIF-4E ASO in saline in a total volume of 200 μl. The ASO consists of the nucleotide sequence 5′-[…]-3′ (SEQ ID NO:1), in which every internucleoside linkage is a phosphorothioate linkage, nucleotides 1-5 and 16-20 reading from the 5′ end to the 3′ end each comprise a 2′-O-(2-methoxyethyl) sugar, nucleotides 6-15 are 2′-deoxynucleotides, every cytosine residue is a 5-methylcytosine, and which is in the form of a sodium salt. The mice are first injected with an initial loading dose of 50 mg/kg ASO for 3 consecutive days, followed by 50 mg/kg thrice weekly thereafter.
(§4) Cisplatin dosing begins 8 days after the first ASO dose to allow time for reduction of eIF-4E protein expression. Mice are dosed intraperitoneally (IP) with 2 or 5 mg/kg cisplatin (Teva Parenteral Medicines, Inc.; 0703-5748-11) from an infusion concentrate diluted in saline, in a volume of 200 μl once weekly for 65 days. One mL of infusion concentrate (1 mg/mL) contains 1 mg cisplatin, 9 mg sodium chloride, hydrochloric acid and/or sodium hydroxide to pH 3.2-4.4, and water for injection.
(§5) The vehicle only group is dosed with saline.
(§6) Tumor volumes are calculated measuring the largest (L) and smallest (W) diameters with a caliper. The formula is: Volume=L×W^2×0.534. Tumor volume data are transformed to a log scale to equalize variance across time and treatment groups. The log volume data are analyzed with a two-way repeated measures analysis of variance by time and treatment using SAS PROC MIXED software (SAS Institute Inc, Cary, N.C.) using the spatial power covariance structure. Treatment groups are compared to the control group at each time point and overall. The data may be plotted as means and standard errors for each treatment group versus time. Additivity is assessed in two ways: (1) as an overall interaction effect between the ASO and cisplatin in the repeated measures analysis, and (2) by using the Bliss Independence method on the final day of the study (C. I. Bliss (1939) Ann. AppL Biol. 26:585-615). These two methods yield the same results.

[2] = test system: H1975 xenografts; experiment: H1975 human non-small cell lung cancer xenograft tumor volume in athymic nude mice; type: in vivo; conditions: for H1975 Xenograft Tumor Volume, Mean / Percent Reduction of H1975 Tumor Size on Day 43: ASO 50 mg/kg iv, cisplatin 5 mg/kg IP weekly; for H1975 Xenograft Tumor Volume, Mean: nude mice; for Percent Reduction of H1975 Tumor Size on Day 43: negative number indicates reduction vs. control
Experimental: as §1, §2, §3, §4, §5, §6

d(P-thio) ([2′-O-(2-methoxyethyl)]m5rU-([2′-O-(2-methoxyethyl)]rG-([2′-O-(2-methoxyethyl)]m5rU-([2′-O-(2-methoxyethyl)]mSrC-([2′-O-(2-methoxyethyl)]rA-T-A-T-T-m5C-m5C-T-G-G-A ([2′-O-(2-methoxyethyl)]m5rU-([2′-O-(2-methoxyethyl)]m5rC-([2′-O-(2-methoxyethyl)]m5rC-([2′-O-(2-methoxyethyl)]m5rU-([2′-O-(2-methoxyethyl)]m5rU) [eIF-4E ASO]
sensitization of tumor cells to the growth- and proliferation-inhibiting action of cisplatin ([1]; A549 xenografts): sensitizes the tumor cells
A549 Xenograft Tumor Volume, Mean ([1]; Day 11): 86.39 mm^3
A549 Xenograft Tumor Volume, Mean ([1]; Day 14): 87.36 mm^3
A549 Xenograft Tumor Volume, Mean ([1]; Day 18): 141.7 mm^3
A549 Xenograft Tumor Volume, Mean ([1]; Day 21): 134.88 mm^3
A549 Xenograft Tumor Volume, Mean ([1]; Day 25): 212.4 mm^3
A549 Xenograft Tumor Volume, Mean ([1]; Day 28): 251.64 mm^3
A549 Xenograft Tumor Volume, Mean ([1]; Day 32): 309.94 mm^3
A549 Xenograft Tumor Volume, Mean ([1]; Day 36): 402.67 mm^3
A549 Xenograft Tumor Volume, Mean ([1]; Day 40): 439.54 mm^3
A549 Xenograft Tumor Volume, Mean ([1]; Day 43): 499.06 mm^3
A549 Xenograft Tumor Volume, Mean ([1]; Day 47): 455.53 mm^3
A549 Xenograft Tumor Volume, Mean ([1]; Day 50): 463.92 mm^3
A549 Xenograft Tumor Volume, Mean ([1]; Day 54): 520.9 mm^3
A549 Xenograft Tumor Volume, Mean ([1]; Day 57): 550.29 mm^3
A549 Xenograft Tumor Volume, Mean ([1]; Day 61): 597.72 mm^3
A549 Xenograft Tumor Volume, Mean ([1]; Day 64): 618.75 mm^3
A549 Xenograft Tumor Volume, Mean ([1]; Day 68): 594.08 mm^3
A549 Xenograft Tumor Volume, Mean ([1]; Day 71): 566.2 mm^3
A549 Xenograft Tumor Volume, Mean ([1]; Day 75): 608.86 mm^3
Percent Reduction of A549 Tumor Size on Day 75 ([1]; Day 75): −22.6%
H1975 Xenograft Tumor Volume, Mean ([2]; Day 7): 45.83 mm^3
H1975 Xenograft Tumor Volume, Mean ([2]; Day 12): 85.9 mm^3
H1975 Xenograft Tumor Volume, Mean ([2]; Day 15): 121.6 mm^3
H1975 Xenograft Tumor Volume, Mean ([2]; Day 19): 255.64 mm^3
H1975 Xenograft Tumor Volume, Mean ([2]; Day 22): 376.84 mm^3
H1975 Xenograft Tumor Volume, Mean ([2]; Day 26): 742.98 mm^3
H1975 Xenograft Tumor Volume, Mean ([2]; Day 29): 1100.19 mm^3
H1975 Xenograft Tumor Volume, Mean ([2]; Day 33): 1485.65 mm^3
H1975 Xenograft Tumor Volume, Mean ([2]; Day 36): 2164.31 mm^3
H1975 Xenograft Tumor Volume, Mean ([2]; Day 40): 2901.75 mm^3
H1975 Xenograft Tumor Volume, Mean ([2]; Day 43): 3881.36 mm^3
Percent Reduction of H1975 Tumor Size on Day 43 ([2]; Day 43): 11.5%
sensitization of tumor cells to the growth- and proliferation-inhibiting action of cisplatin ([2]; H1975 xenografts): sensitizes the tumor cells

N.N.[Cl][Pt][Cl] [Cisplatin, cis-Diamminedichloroplatinum (II), reference compound]
A549 Xenograft Tumor Volume, Mean ([1]; Day 11): 85.43 mm^3
A549 Xenograft Tumor Volume, Mean ([1]; Day 14): 94.63 mm^3
A549 Xenograft Tumor Volume, Mean ([1]; Day 18): 124.68 mm^3
A549 Xenograft Tumor Volume, Mean ([1]; Day 21): 137.74 mm^3
A549 Xenograft Tumor Volume, Mean ([1]; Day 25): 210.75 mm^3
A549 Xenograft Tumor Volume, Mean ([1]; Day 28): 238.78 mm^3
A549 Xenograft Tumor Volume, Mean ([1]; Day 32): 283.12 mm^3
A549 Xenograft Tumor Volume, Mean ([1]; Day 36): 310.61 mm^3
A549 Xenograft Tumor Volume, Mean ([1]; Day 40): 367.44 mm^3
A549 Xenograft Tumor Volume, Mean ([1]; Day 43): 412.68 mm^3
A549 Xenograft Tumor Volume, Mean ([1]; Day 47): 405.18 mm^3
A549 Xenograft Tumor Volume, Mean ([1]; Day 50): 428.84 mm^3
A549 Xenograft Tumor Volume, Mean ([1]; Day 54): 478.35 mm^3
A549 Xenograft Tumor Volume, Mean ([1]; Day 57): 482.77 mm^3
A549 Xenograft Tumor Volume, Mean ([1]; Day 61): 478.95 mm^3
A549 Xenograft Tumor Volume, Mean ([1]; Day 64): 529.51 mm^3
A549 Xenograft Tumor Volume, Mean ([1]; Day 68): 520.83 mm^3
A549 Xenograft Tumor Volume, Mean ([1]; Day 71): 564.57 mm^3
A549 Xenograft Tumor Volume, Mean ([1]; Day 75): 535.33 mm^3
Percent Reduction of A549 Tumor Size on Day 75 ([1]; Day 75): −31.9%
H1975 Xenograft Tumor Volume, Mean ([2]; Day 7): 40.02 mm^3
H1975 Xenograft Tumor Volume, Mean ([2]; Day 12): 90.76 mm^3
H1975 Xenograft Tumor Volume, Mean ([2]; Day 15): 112.12 mm^3
H1975 Xenograft Tumor Volume, Mean ([2]; Day 19): 172.5 mm^3
H1975 Xenograft Tumor Volume, Mean ([2]; Day 22): 295.95 mm^3
H1975 Xenograft Tumor Volume, Mean ([2]; Day 26): 595.06 mm^3
H1975 Xenograft Tumor Volume, Mean ([2]; Day 29): 863.18 mm^3
H1975 Xenograft Tumor Volume, Mean ([2]; Day 33): 1221.36 mm^3
H1975 Xenograft Tumor Volume, Mean ([2]; Day 36): 1740.85 mm^3
H1975 Xenograft Tumor Volume, Mean ([2]; Day 40): 2095.44 mm^3
H1975 Xenograft Tumor Volume, Mean ([2]; Day 43): 2798.22 mm^3
Percent Reduction of H1975 Tumor Size on Day 43 ([2]; Day 43): −19.6%
